Measurements: US20230101403A1, “METHOD OF TREATING OR AMELIORATING CANCERS DRIVEN BY RECEPTOR TYROSINE KINASE FUSION ONCOGENES, AND COMPOSITIONS FOR THE SAME” (THE TRUSTEES OF THE UNIVERSITY OF PENNSYLVANIA, priority 2021, published 2023)

Tests used:
[1] = tested on: Erk activity, STE-1 cells; assay: live cell imaging of Erk kinase translocation reporter (ErkKTR); assay type: cell-based; settings: for effect on ErkKTR: Erk activity and reactivation pulses: crizotinib 1 μM, erlotinib 1 μM, marimastat 10 μM
Procedure: (§1) Error bars represent 95% confidence intervals. […] FIG. 4I depicts the comparison of EGR1 expression after 6 hr of inhibitor treatment. […] FIG. 5B is the schematic of spatial analysis of Erk signaling in relation to dying cells. Cells within a 32 μm radius of a dying cell were considered neighbors of the dying cell, whereas all other cells were non-neighbors. Neighbors/non-neighbors were identified and tracked for 50 min before the death event, and Erk actvity in these cells was quantified. FIG. 5C depicts the quantification of Erk activity pulses in neighbors (“N”) or non-neighbors (“R”) of each cell-death event in the indicated conditions.
To further understand Erk reactivation, the present study observed Erk activity using live cell imaging of the Erk kinase translocation reporter (ErkKTR) in STE-1 cells (FIG. 4A). ErkKTR is a fluorescence reporter whose localization corresponds with Erk activity: the nuclear localization of ErkKTR indicates low activity of Erk while the cytoplasmic localization indicates high activity of Erk.

STE-1 cells [2] = assay: cell death in cells imaged over 24 hrs; assay type: cell-based
[3] = tested on: ppErk, STE-1 and H3122 cancer cells; assay: single-cell ppErk levels as a function of treatment duration; assay type: cell-based; settings: serum-starved
Description: The present study sought to understand whether relief of EGFR inhibition by EML4-ALK might lead to Erk reactivation in STE-1 and H3122 cancer cells. […] The present study thus further examined Erk reactivation under ALK inhibition combined with marimastat, an inhibitor for matrix metalloproteases that are required for shedding EGF family ligands prior to paracrine signaling.

[4] = tested on: Erk activity, STE-1 cells
Procedure: as §1
The present study next sought to determine the source of the paracrine signals. […] Signal activation near dying cells was quantified by first identifying the time and location of each cell death event. All cells that were within a 100-pixel radius (˜32 μm, or about a 2-cell radius) of the dying cell for the 50 minutes preceding death were then identified. The present study refers to these as the “neighbors” of the dying cell (FIG. 5B). The present study then counted Erk pulses in the neighbors of a death event and compared to Erk pulses from a randomly selected subset of non-neighbors over that same time interval.

EGR1, STE-1 cells = assay: EGR1 expression in individual cells after drug treatment; assay type: cell-based
Procedure: as §1

ppErk, H3122 cells = assay: EGF-induced ppErk induction in H3122 cells; assay type: cell-based; settings: 100 ng/mL EGF, pre-treatment 1 μM
Description: Data points represent mean single cell ppErk intensity of three replicates.
(§3) To determine whether such negative regulation could be observed in the context of native epidermal growth factor receptor (EGFR) signaling, the present study measured ppErk induction upon addition of epidermal growth factor (EGF) in STE-1 and H3122 cells, two NSCLC cell lines driven by EML4-ALK(V1) (FIG. 2A).
(§4) To determine whether the mechanism was predominantly transcriptional or post-translational, the required duration of ALKi pre-incubation to observe an increase in dynamic range was examined. both STE-1 and H3122 cells were preincubated with varying durations of ALK inhibition, and ppErk levels in response to 15 min of EGF stimulation was analyzed.

STE-1 cells [5] = assay: caspase-3 activity reporter (Nucview) in STE-1; assay type: cell-based; settings: for killing over untreated cells, single agent: 24 hr
Procedure: (§2) FIG. 6C depicts the quantification of death in STE-1 cells following 24 hrs of inhibitor treatment. FIG. 6D depicts the number of Erk pulses in cells that died (“D”) and cells that lived (“L”) during 24 hrs of inhibitor treatment. FIG. 6E depicts the percentage of caspase-3+ STE-1 and H3122 cells following 24 hrs of inhibitor treatment.
Percent of Caspase-3 positive cells assessed using NucView 488 afterfive days of treatment with the indicated inhibitors: Alecitinib 1 μM, Erlotinib 1 μM, Marimastat 10 μM.

ppErk, STE-1 cells = assay: EGF-induced ppErk induction in STE-1 cells; settings: 100 ng/mL EGF, pre-treatment 1 μM
Procedure: Data points represent mean single cell ppErk intensity of three replicates. FIG. 2C depicts the quantification of dynamic range of ppErk induction from experiment in 2C performed over a range of EGF concentrations. […] FIG. 2E depicts the ppErk immunofluoresence intensity response to 50 ng/mL EGF stimulation.
as §3, §4

[6] = tested on: ppErk, STE-1 cells expressing optoFGFR; assay: functional profiling: optoFGFR blue light stimulation, single-cell ppErk immunofluorescence; assay type: cell-based; settings: STE-1 optoFGFR
Description: FIG. 1A illustrates that EML4-ALK+ cancer cells treated with ALK specific tyrosine kinase inhibitor (TKI) often result in a population of persistent/tolerant cells that later develop into resistant colonies. […] FIG. 1C, left panel, illustrates that transmembrane RTK and EML4-ALK protein granules both signal through the same adapter proteins and downstream pathways like Ras/Erk. FIG. 1C, right panel, illustrates the functional profiling method used in determining the extent to which EML4-ALK expression or its inhibition alter signal transmission in cancer cells. FIG. 1D illustrates that optoFGFR allows for blue light stimulation of RTK (optoFGFR) signal transduction. […] FIG. 1F depicts the normalized ppErk fold-change in response to 5 min of blue light stimulation. Blue light intensity ranged from 2% to 60% of maximum (1.45 W/cm^2). Datapoints show mean single-cell ppErk intensity from three replicates.
A method called functional profiling that allows the measurement of how oncogenes and targeted therapies can alter signal transmission was developed. In functional profiling, light-activated ‘optogenetic’ signaling stimuli are apply at specific nodes of a signaling pathway and downstream signals, transcription, and cell fate as a function of oncogene or drug status are observe.
To determine whether EML4-ALK could alter RTK signal transmission properties, a light-sensitive fibroblast growth factor receptor (optoFGFR) was expressed in the STE-1 cancer cell line, which is driven by the EML4-ALK(V1) oncogene. The present study observed signal transmission by applying blue light stimuli and measuring single-cell phospho-Erk levels single-cell immunofluorescence (FIG. 1D). In STE-1 cells, optoFGFR induced only mild double-phosphorylated Erk (ppErk) signal increase above the high basal ppErk levels attributed to active EML4-ALK (FIG. 1E, top). […] Signal dynamic range increased due to lowering of tonic Erk activity from ALK, as well as from an increase in the maximum signal achievable relative to untreated cells. […]

H3122 cells = assay: caspase-3 activity reporter (Nucview) in H3122; assay type: cell-based; settings: for killing over untreated cells, single agent: 24 hr
Description: as §2

Compound	ErkKTR localization upon treatment ([1]; 1 μM)	Erk pulses in surviving cells compared to cells that died (STE-1 cells [2]; 24 hrs)	cell death, % of cells analyzed (STE-1 cells [2]; imaged over 24 hrs) [%]	time to reappearance of ERK-hi cells [3] [h]	time within which mean Erk levels decreased dramatically [3] [min]	median Erk pulses per cell, neighbors of a death ([4]; 50 minutes preceding death, within ~32 μm) [pulses per cell]	proportion of neighbor cells with at least 1 pulse preceding a death event ([4]; neighbors) [%]	proportion of non-neighbor cells with at least 1 pulse preceding a death event ([4]; non-neighbors) [%]	time EGR1 levels remained low (EGR1, STE-1 cells)	EGR1 expression (EGR1-high population) (EGR1, STE-1 cells; crizotinib 1 μM, erlotinib 1 μM)	ppErk dynamic range in response to EGF (ppErk, H3122 cells)	caspase-3-positive cell fraction (STE-1 cells [5]; first 24 hr of treatment) [%]	ppErk dynamic range in response to EGF (ppErk, STE-1 cells)	dynamic range of signal induction (ppErk) ([6]; blue light, pre-treatment 1 μM) [fold]	light stimulation at which increase of dynamic range could be observed ([6]; 1 μM)	dynamic range plateau (induction) at the highest light levels ([6]; 1 μM, highest levels of light stimulation) [fold]	caspase-3-positive cell fraction (H3122 cells; first 24 hr of treatment) [%]	effect on ErkKTR: Erk activity and reactivation pulses [1]	killing over untreated cells, single agent (STE-1 cells [5])	killing over untreated cells, single agent (H3122 cells)
C[C@@H](Oc1cc(-c2cnn(C3CCNCC3)c2)cnc1N)c1c(Cl)ccc(F)c1Cl [crizotinib]	induced rapid nuclear translocation of ErkKTR in all cells	surviving cells showed an increased number of Erk pulses compared to cells that died	~40	≤ 1	≤ 10	0.23	60	20	at least 2 hrs	a distinct peak of EGR1-high cells appeared and grew at 4 and 6 hrs after drug treatment	dramatic increase in ppErk dynamic range	25	dramatic increase in ppErk dynamic range	~18	≤ 5 % maximal light stimulation	~25	5	–	–	–
C#Cc1cccc(Nc2ncnc3cc(OCCOC)c(OCCOC)cc23)c1 [erlotinib]	–	–	–	–	–	–	–	–	–	–	–	–	–	–	–	–	–	no obvious effect on ErkKTR	Neither erlotinib or marimastat treatment alone showed enhanced killing over untreated cells	Neither erlotinib or marimastat treatment alone showed enhanced killing over untreated cells
CNC(=O)[C@@H](NC(=O)[C@H](CC(C)C)[C@H](O)C(=O)NO)C(C)(C)C [marimastat]	–	–	–	–	–	–	–	–	–	–	–	–	–	–	–	–	–	no obvious effect on ErkKTR	Neither erlotinib or marimastat treatment alone showed enhanced killing over untreated cells	Neither erlotinib or marimastat treatment alone showed enhanced killing over untreated cells
